Legend:
Assay in all cases: relative viability (nuclei count vs DMSO), 5 days (fraction); higher = more cells survive
[1] = compound: C=CCc1cccc(/C=N/NC(=O)CN2CCN(Cc3ccccc3)CC2)c1O [PAC-1] + NC(=O)Nc1cc(-c2cccc(F)c2)sc1C(=O)N[C@H]1CCCNC1 [AZD7762] (partner 0.2 µM)
Method in brief: (§1)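 Dosing by pin tool came one day after lung cancer cell lines were seeded in 1536-well plates, using either one drug or a fixed anchor-drug dose plus five library-drug doses (not always all listed) in √10 steps. After 5 days, nuclei were counted on 4× images. Relative viability is treated-well nuclei count divided by vehicle-well nuclei count, and values are medians of duplicate plates.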

[2] = compound: C=CC(=O)N1CCC[C@@H](n2nc(-c3ccc(Oc4ccccc4)cc3)c3c(N)ncnc32)C1 [Ibrutinib] + NC(=O)Nc1cc(-c2cccc(F)c2)sc1C(=O)N[C@H]1CCCNC1 [AZD7762] (partner 0.2 µM)
Method in brief: as §1

[3] = compound: C=CC(=O)N1CCC[C@@H](n2nc(-c3ccc(Oc4ccccc4)cc3)c3c(N)ncnc32)C1 [Ibrutinib] + CS(=O)(=O)N1CCN(Cc2cc3nc(-c4cccc5[nH]ncc45)nc(N4CCOCC4)c3s2)CC1 [Pictilisib] (partner 1 µM)
Method in brief: as §1

[4] = compound: C=CCc1cccc(/C=N/NC(=O)CN2CCN(Cc3ccccc3)CC2)c1O [PAC-1] + CC(=O)Nc1cccc(-n2c(=O)n(C3CC3)c(=O)c3c(Nc4ccc(I)cc4F)n(C)c(=O)c(C)c32)c1 [Trametinib] (partner 0.02 µM)
Method in brief: as §1

Row | Cell Line | relative viability ([1]; first compound 0.02 µM) | relative viability ([1]; first compound 0.06325 µM) | relative viability ([1]; first compound 0.2 µM) | relative viability ([1]; first compound 2 µM) | relative viability ([2]; first compound 0.01581 µM) | relative viability ([2]; first compound 0.05 µM) | relative viability ([2]; first compound 0.1581 µM) | relative viability ([2]; first compound 0.5 µM) | relative viability ([3]; first compound 0.01581 µM) | relative viability ([3]; first compound 0.05 µM) | relative viability ([3]; first compound 0.1581 µM) | relative viability ([3]; first compound 0.5 µM) | relative viability ([4]; first compound 0.02 µM) | relative viability ([4]; first compound 0.06325 µM) | relative viability ([4]; first compound 0.2 µM) | relative viability ([4]; first compound 2 µM) | relative viability ([2]; first compound 0.005 µM) | relative viability ([3]; first compound 0.005 µM)
1 | EPLC-272H | 0.177 | 0.295 | 0.134 | 0.22 | 0.232 | 0.269 | 0.241 | 0.191 | 0.291 | 0.299 | 0.194 | 0.267 | 0.251 | 0.322 | 0.301 | 0.28 | – | –
2 | LXF-289 | 1.09 | 1.11 | 0.987 | 1.08 | 1.07 | 1.06 | 1.1 | 1.15 | 0.724 | 0.802 | 0.794 | 0.758 | 0.7 | 0.718 | 0.705 | 0.675 | 1.22 | 0.733
3 | LOU-NH91 | 0.742 | 0.761 | 0.768 | 0.71 | 0.701 | 0.717 | 0.801 | 0.754 | 0.475 | 0.512 | 0.487 | 0.487 | 0.776 | 0.776 | 0.782 | 0.817 | 0.684 | 0.451
4 | LCLC-103H | 0.833 | 0.764 | 0.713 | 0.757 | 0.706 | 0.733 | 0.835 | 0.745 | 0.535 | 0.557 | 0.517 | 0.653 | 0.636 | 0.697 | 0.708 | 0.714 | 0.829 | 0.72
5 | NCI-H1944 | 0.428 | 0.542 | 0.502 | 0.516 | 0.455 | 0.409 | 0.448 | 0.422 | 0.334 | 0.308 | 0.317 | 0.316 | 0.414 | 0.393 | 0.433 | 0.444 | 0.388 | 0.305
6 | NCI-H460 | 0.548 | 0.674 | 0.602 | 0.656 | 0.563 | 0.646 | 0.622 | 0.659 | 0.365 | 0.313 | 0.19 | 0.256 | 0.136 | 0.156 | 0.204 | 0.286 | 0.634 | 0.331
7 | NCI-H358 | 0.51 | 0.507 | 0.55 | 0.402 | 0.349 | 0.282 | 0.515 | 0.29 | 0.372 | 0.291 | 0.315 | 0.264 | 0.128 | 0.121 | 0.164 | 0.128 | 0.404 | 0.28
8 | NCI-H596 | 1.11 | 1.2 | 1.09 | 1.13 | 1.15 | 1.32 | – | 0.928 | 0.406 | 0.442 | 0.392 | 0.393 | 0.704 | 0.802 | 0.801 | 0.87 | 0.996 | 0.43
9 | NCI-H322M | 0.573 | 0.618 | 0.706 | 0.584 | 0.527 | 0.514 | 0.486 | 0.502 | 0.562 | 0.597 | 0.374 | 0.467 | 0.498 | 0.575 | 0.542 | 0.503 | 0.432 | 0.431
10 | H3255 | 0.993 | 0.802 | 0.772 | 0.931 | 0.767 | 0.61 | 0.754 | 0.418 | 0.397 | 0.263 | 0.415 | 0.14 | 0.713 | 0.746 | 0.587 | 0.512 | 0.695 | 0.389
11 | NCI-H2126 | 1.04 | 0.993 | 0.963 | 1.05 | 0.966 | 0.962 | 0.986 | 0.958 | 0.469 | 0.454 | 0.399 | 0.43 | 0.548 | 0.535 | 0.563 | 0.55 | 0.776 | –
12 | NCI-H1993 | 0.829 | 0.797 | 0.748 | 0.837 | 0.732 | 0.739 | 0.751 | 0.557 | 0.7 | 0.139 | – | 0.871 | 0.446 | 0.534 | 0.623 | 0.583 | 0.39 | 0.777
13 | NCI-H1915 | 0.724 | 0.681 | 0.546 | 0.695 | 0.638 | 0.625 | 0.741 | 0.667 | 0.978 | 0.891 | 0.609 | 1.02 | 0.304 | 0.303 | 0.303 | 0.33 | 0.76 | –
14 | NCI-H727 | 0.547 | 0.615 | 0.671 | 0.711 | 0.664 | 0.524 | 0.416 | 0.555 | 0.471 | 0.246 | 0.298 | 0.343 | 0.348 | 0.394 | 0.414 | 0.414 | 0.404 | 0.253
15 | NCI-H1734 | 0.515 | 0.615 | 0.532 | 0.546 | 0.518 | 0.449 | 0.557 | 0.526 | 0.446 | 0.43 | 0.491 | 0.388 | 0.692 | 0.774 | 0.644 | 0.644 | 0.481 | 0.354
16 | A-427 | 0.774 | 0.734 | 0.713 | 0.702 | 0.734 | 0.757 | – | 0.706 | 0.623 | 0.719 | 0.405 | 0.743 | 0.767 | 0.778 | 0.817 | 0.796 | 0.745 | 0.553
17 | NCI-H2170 | 0.874 | 0.856 | 0.928 | 0.846 | 0.695 | 0.655 | 0.769 | 0.182 | 0.312 | 0.243 | 0.261 | 0.169 | 0.888 | 0.958 | 0.932 | 0.859 | 0.699 | 0.234

— the supplement of paper PMC10307832
